Earlier results in patent US20050150424A1, “Ink composition and inkjet recording method” (FUJI PHOTO FILM CO., LTD., priority 2003, published 2005).
Like-named read-outs stand apart in the source and are kept apart here.

Settings: in water at 25° C.

Row | pKa (Table 4) | SMILES | pKa
1 | 2-Ethylhexanoic acid (pKa: 4.1) | CCCCC(CC)C(=O)O (centres unmarked) [2-Ethylhexanoic acid] | –
2 | – | C=C(C)C(=O)OCCOC(=O)c1ccccc1C(=O)O [2-methacryloyloxyethyl phthalate] | 4.0
3 | – | C=CC(=O)O [acrylic acid] | 3.6
4 | – | C=C(C)C(=O)OCCOP(=O)(O)O [ethylene glycol methacrylate phosphate] | 2.5
5 | – | C=C(C)C(=O)O [methacrylic acid] | 3.6
